Source: patent US4594339A, “Anti-herpes virus compositions containing 5-substituted 1-2'(deoxy-2-'-substituted-β-d-arabinofuranosyl)pyrimedene nucleosides” (priority 1984, dated 1986)
In brackets after ≈: the same amount, converted by molar mass.

Legend:
[1] = tested on: cytomegalovirus (CMV strain AD 169); assay: Activity against cytomegalovirus (plaque formation on WI-38 cells); assay type: cell-based
[2] = tested on: herpes simplex virus-type 1 DNA; assay: Inhibition of replication of HSV-1 DNA versus cellular DNA in the same infected cells; assay type: cell-based; conditions: viral vs cellular DNA in the same infected cells
HSV-1 strain 2931 = assay: In vivo HSV-1 infection of A/J mice; conditions: for mice that survived the 21 day experiment: starting 24 hours after inoculation, intraperitoneal
Procedure: (§1) The effective doses for 1-(2-deoxy-2-fluoro-β-D-arabinofuranosyl)-5-iodocytosine are given below. 1-(2-deoxy-2-fluoro-β-D-arabinofuranosyl)-5-iodocytosine is diluted in physiological saline, filter sterilized, and inoculated. This compound is readily soluble at concentrations of 25 mg/ml in saline. In mouse studies, the drug is inoculated by the intraperitoneal route.
1-(2-deoxy-2-fluoro-β-D-arabinofuranosyl)-5-iodocytosine was also shown to be active in vivo. A/J mice were inoculated with approximately 50 LD50 of HSV-1 strain 2931 intraperitoneally and then treated with 1-(2-deoxy-2-fluoro-β-D-arabinofuranosyl)-5-iodocytosine starting 24 hours later. 1-(2-deoxy-2-fluoro-β-D-arabinofuranosyl)-5-iodocytosinewas given at 10 and 1 mg/kg/da for 5 days. Untreated mice died 8 days post inoculation. Five of 10 mice treated with 10 mg/kg/day survived the 21 day experiment. Two of 10 treated with 1 mg/kg/da survival the 21 day experiment and the remainder died an average of 10 days after inoculation.

herpes zoster virus = assay: Anti-viral activity against herpes zoster virus; assay type: cell-based
turkey herpesvirus = assay: In vivo test on avian (turkey) herpesvirus in day-old chicks; conditions: 2.5 mg FIAC per 50 g chick at intervals
Procedure: In vivo tests were run to determine the effect of FIAC on avian (turkey) herpesvirus. To this end, day-old chicks were infected with turkey herpesvirus and treated at intervals with 2.5 mg FIAC per 50 g chick.

[3] = tested on: viral versus the cellular enzymes (TK and DNA polymerase); assay: Direct testing of interaction with the viral versus the cellular enzymes; assay type: biochemical; conditions: FIAC or its triphosphate
[4] = tested on: Herpes Simplex Virus type 1; assay: Inhibition of Herpes Simplex Virus type 1 replication; assay type: cell-based
Procedure: (§2) Compounds of the invention show anti-viral and anti-tumor activity. 1-(2-Deoxy-2-fluoro-β-D-arabinofuranosyl)-5-iodocytosine inhibits Herpes Simplex Virus type 1 and type 2 replication. HFEM, Patton, 2931, and F-strain HSV-1 and 333 and G-strain HSV-2 are effected at concentrations of 1-(2-deoxy-2-fluoro-β-D-arabinofuranosyl)-5-iodocytosine 0.01μM (approximately 0.004 μg/ml).
as §1

[5] = Toxicity to normal human lymphoblastoid cells; assay type: cell-based; conditions: read-out: concentration up to which not toxic to normal human lymphoblastoid cells
Procedure: Since 1-(2-deoxy-2-fluoro-β-D-arabinofuranosyl)-5-iodocytosine was not toxic to normal human lymphoblastoid cells at concentrations of up to 10 μM, the compound is believed to affect tumor cells at concentrations 1/100th those needed to suppress normal cell replication.

[6] = tested on: Herpes Simplex Virus type 2; assay: Inhibition of Herpes Simplex Virus type 2 replication; assay type: cell-based
Procedure: as §2, §1

L5178Y = assay: Cytotoxicity, 50% inhibition of growth of L5178Y cells in vitro; assay type: cell-based; conditions: Mus musculus, 96 hrs. incubation at 37° C., read-out: Cytoxicity ID50
Procedure: Concentration required for 50% inhibition of growth of cells in vitro
after 96 hrs. incubation at 37° C.

[7] = tested on: herpes simplex virus (HSV); conditions: cited from earlier work
uninfected cells = conditions: compared with 5-iodo (or 5-bromo)-2'-deoxyuridine; cited from earlier work
[8] = series of herpes simplex virus-types 1 and 2

With `Cc1cn([C@@H]2O[C@H](CO)[C@@H](O)[C@@H]2F)c(=O)[nH]c1=O` [Vf, 1-(2-deoxy-2-fluoro-β-D-arabinofuranosyl)thymine] the “sensitivity of cytomegalovirus to anti-viral effect” value [1] was “sensitive”.
For `Nc1nc(=O)n([C@@H]2O[C@H](CO)[C@@H](O)[C@@H]2F)cc1I` [1-(2-deoxy-2-fluoro-β-D-arabinofuranosyl)-5-iodocytosine], the “sensitivity of cytomegalovirus to anti-viral effect” value [1] was “sensitive”, the “selective inhibition of replication of viral DNA” value [2] was “selectively inhibit the replication of herpes simplex virus-type 1 DNA but not cellular DNA” and the “mice that survived the 21 day experiment” value (HSV-1 strain 2931; 1 mg/kg/da for 5 days) was “Two of 10”. The “average time of death after inoculation (remainder)” value (HSV-1 strain 2931; 1 mg/kg/da for 5 days, untreated mice died 8 days post inoculation) was 10 days, the “mice that survived the 21 day experiment” value (HSV-1 strain 2931; 10 mg/kg/day for 5 days) was “Five of 10” and the anti-viral activity (herpes zoster virus) was “impressive anti-viral activity”. The “effect on virus induced leukopenia / inhibition of the virus” value (turkey herpesvirus) was “brought the virus induced leukopenia back to the levels of the control uninfected chicks and thus inhibited the virus”, the “selectivity for viral versus cellular enzymes” value [3] was “selectivity was demonstrated” and the minimal effective concentration ([4]; Human alphaherpesvirus 1, HFEM, Patton, 2931, and F-strain HSV-1, read-out: concentration at which HSV-1 strains are effected) was ~0.004 µg/mL. For the same compound, the anti-viral activity [4, 8] was “impressive anti-viral activity”, the MNTC [5] was > 10 µM and the minimal effective concentration ([6]; Human alphaherpesvirus 2, 333 and G-strain HSV-2, read-out: concentration at which HSV-2 strains are effected) was ~0.004 µg/mL. The anti-viral activity [6, 8] was “impressive anti-viral activity”.
In the case of `Nc1nc(=O)n([C@@H]2O[C@H](CO)[C@@H](O)[C@@H]2F)cc1Br` [IVd, 1-(2-deoxy-2-fluoro-β-D-arabinofuranosyl)-5-bromocytosine], the IC50 (L5178Y) is reported as ~10 µg/mL (≈ 30.9 µM).
With `Cl.Nc1nc(=O)n([C@@H]2O[C@H](CO)[C@@H](O)[C@@H]2F)cc1I` [IVe, 1-(2-Deoxy-2-fluoro-β-D-arabinofuranosyl)-5-iodocytosine hydrochloride] the IC50 (L5178Y) was 48 µg/mL.
`Nc1ccn([C@@H]2O[C@H](CO)[C@@H](O)[C@@H]2F)c(=O)n1` [IVa, 1-(2-deoxy-2-fluoro-β-D-arabinofuranosyl)cytosine, reference compound] gave an IC50 (L5178Y) of 0.05 µg/mL (≈ 0.204 µM).
With `O=c1[nH]c(=O)n([C@@H]2O[C@H](CO)[C@@H](O)[C@@H]2F)cc1I` [Ve, 1-(2-deoxy-2-fluoro-β-D-arabinofuranosyl)-5-iodouracil] the IC50 (L5178Y) was 0.9 µg/mL (≈ 2.42 µM).
`Nc1nc(=O)n([C@@H]2O[C@H](CO)[C@@H](O)[C@@H]2F)cc1Cl` [IVc, 1-(2-deoxy-2-fluoro-β-D-arabinofuranosyl)-5-chlorocytosine] gave an IC50 (L5178Y) of 1.4 µg/mL (≈ 5.01 µM).
In the case of `O=c1ccn([C@@H]2O[C@H](CO)[C@@H](O)[C@@H]2F)c(=O)[nH]1` [Va], the IC50 (L5178Y) is reported as > 10 µg/mL.
Compound `O=c1[nH]c(=O)n([C@@H]2O[C@H](CO)[C@@H](O)[C@@H]2F)cc1Br` [Vd, 1-(2-deoxy-2-fluoro-β-D-arabinofuranosyl)-5-bromouracil] has an IC50 (L5178Y) of 0.9 µg/mL (≈ 2.77 µM).
`O=c1[nH]c(=O)n([C@@H]2O[C@H](CO)[C@@H](O)[C@@H]2F)cc1Cl` [Vc, 1-(2-deoxy-2-fluoro-β-D-arabinofuranosyl)-5-chlorouracil] showed an IC50 (L5178Y) of 1.4 µg/mL (≈ 4.99 µM).
`O=c1[nH]c(=O)n([C@@H]2O[C@H](CO)[C@@H](O)[C@@H]2F)cc1F` [Vb, 1-(2-deoxy-2-fluoro-β-D-arabinofuranosyl)-5-fluorouracil] showed an IC50 (L5178Y) of 1 µg/mL (≈ 3.79 µM).
In the case of `Nc1nc(=O)n([C@H]2C[C@H](O)[C@@H](CO)O2)cc1I` [5-iodo-2'-deoxycytidine], the “inhibition of HSV replication” value [7] is given as “as effectively as their corresponding deoxyuridine analogs” and the “toxicity to uninfected cells” value (uninfected cells) is given as “less toxic to uninfected cells”.
`Nc1nc(=O)n([C@@H]2O[C@H](CO)[C@@H](O)[C@@H]2F)cc1F` [IVb, 1-(2-deoxy-2-fluoro-β-D-arabinofuranosyl)-5-fluorocytosine] gave an IC50 (L5178Y) of 0.5 µg/mL (≈ 1.9 µM).
For `Nc1nc(=O)n([C@H]2C[C@H](O)[C@@H](CO)O2)cc1Br` [5-Bromo-2'-deoxycytidine], the “inhibition of HSV replication” value [7] is given as “as effectively as their corresponding deoxyuridine analogs” and the “toxicity to uninfected cells” value (uninfected cells) is given as “less toxic to uninfected cells”.
